# Test results from patent US6472348B1, “Pyridone derivatives and herbicides” (Kumiai Chemical Industry Co., Ltd., priority 1996, dated 2002).
# System: pale smartweed (Po)
# Assay: Test Example 6: crop plant selectivity by upland field soil treatment (soybean), herbicidal effects
# Format: in vivo
# Design: scale not given here
# Details: dose 6.3 g ai/10a, 21st day after application
# Procedure: (§1) (Test on Crop Plant Selectivity by Upland Field Soil Treatment)
# (§2) In a plastic pot (surface area: 600 cm^2) filled with sand, soybean (Gl), Diaitaria ciliaris (Di), green foxtail (Se), Johnsongrass (So), pale smartweed (Po), slender amaranth (Am), common lambsquarters (Ch) and China jute (Ab) were sown and covered with soil. […] The plants were then cultured in a green house, and the evaluation of the herbicidal effects and phytotoxicity was conducted on the 21st day after the application in accordance with the standards as identified in Table 47. Symbol—represents “not tested”.
row,Structure (SMILES),Herbicidal effects Po
1,COc1cc(Cl)cc(F)c1-c1ccc(C(F)(F)F)n(C)c1=O [1′-1],5

# System: wheat (Tr)
# Assay: Test Example 5: crop plant selectivity by upland field soil treatment (wheat), phytotoxicity
# Format: in vivo
# Design: scale not given here
# Details: dose 6.3 g ai/10a, 21st day after application
# Procedure: as §1
# (§3) In a plastic pot (surface area: 600 cm^2) filled with sand, wheat (Tr), Diaitaria ciliaris (Di), green foxtail (Se), pale smartweed (Po), slender amaranth (Am), common lambsquarters (Ch) and China jute (Ab) were sown and covered with soil. […] The plants were then cultured in a green house, and the evaluation of the herbicidal effects and phytotoxicity was conducted on the 21st day after the application in accordance with the standards as identified in Table 47. Symbol—represents “not tested”.
row,Structure (SMILES),Phytotoxicity Tr
1,COc1cc(Cl)cc(F)c1-c1ccc(C(F)(F)F)n(C)c1=O [1′-1],1

# System: green foxtail (Se)
# Assay: Test Example 4: crop plant selectivity by upland field soil treatment (cotton), herbicidal effects
# Format: in vivo
# Design: scale not given here
# Details: dose 6.3 g ai/10 a, evaluated 21st day after application
# Procedure: as §1
# (§4) In a plastic pot (surface area: 600 cm^2) filled with sand, cotton (Go), Diaitaria ciliaris (Di), green foxtail (Se), pale smartweed (Po), slender amaranth (Am), common lambsquarters (Ch) and China jute (Ab) were sown and covered with soil. […] The plants were then cultured in a green house, and the evaluation of the herbicidal effects and phytotoxicity was conducted on the 21st day after the application in accordance with the standards as identified in Table 47. Symbol—represents “not tested”.
row,Structure (SMILES),Herbicidal effects Se
1,COc1cc(Cl)cc(F)c1-c1ccc(C(F)(F)F)n(C)c1=O [1′-1],5

# System: common lambsquarters (Ch)
# Assay: as above
# Format: in vivo
# Design: scale not given here
# Details: dose 6.3 g ai/10 a, evaluated 21st day after application
# Procedure: as §1, §4
row,Structure (SMILES),Herbicidal effects Ch
1,COc1cc(Cl)cc(F)c1-c1ccc(C(F)(F)F)n(C)c1=O [1′-1],5

# System: China jute (Ab)
# Assay: as above
# Format: in vivo
# Design: scale not given here
# Details: dose 6.3 g ai/10 a, evaluated 21st day after application
# Procedure: as §1, §4
row,Structure (SMILES),Herbicidal effects Ab
1,COc1cc(Cl)cc(F)c1-c1ccc(C(F)(F)F)n(C)c1=O [1′-1],5

# System: slender amaranth (Am)
# Assay: as above
# Format: in vivo
# Design: scale not given here
# Details: dose 6.3 g ai/10 a, evaluated 21st day after application
# Procedure: as §1, §4
row,Structure (SMILES),Herbicidal effects Am
1,COc1cc(Cl)cc(F)c1-c1ccc(C(F)(F)F)n(C)c1=O [1′-1],5

# System: pale smartweed (Po)
# Assay: as above
# Format: in vivo
# Design: scale not given here
# Details: dose 6.3 g ai/10 a, evaluated 21st day after application
# Procedure: as §1, §4
row,Structure (SMILES),Herbicidal effects Po
1,COc1cc(Cl)cc(F)c1-c1ccc(C(F)(F)F)n(C)c1=O [1′-1],5

# System: soybean (Gl)
# Assay: Test Example 6: crop plant selectivity by upland field soil treatment (soybean), phytotoxicity
# Format: in vivo
# Design: scale not given here
# Details: dose 6.3 g ai/10a, 21st day after application
# Procedure: as §1, §2
row,Structure (SMILES),Phytotoxicity Gl
1,COc1cc(Cl)cc(F)c1-c1ccc(C(F)(F)F)n(C)c1=O [1′-1],1

# System: common lambsquarters (Ch)
# Assay: Test Example 3: herbicidal effects by upland field foliage treatment
# Format: in vivo
# Design: scale not given here
# Details: 100 g active ingredient per 10 ares, evaluated 14th day after treatment
# Outline: (§5)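 Weeds sown in sand-filled pots and grown 2 weeks in a greenhouse before foliage treatment. Plants then kept in the greenhouse; herbicidal effect scored on day 14 after treatment against a graded standard scale.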
row,Structure (SMILES),Herbicidal effects Ch
1,COc1cc(Cl)cc(F)c1-c1ccc(C(F)(F)F)n(C)c1=O [1′-1],5

# System: slender amaranth (Am)
# Assay: as above
# Format: in vivo
# Design: scale not given here
# Details: 100 g active ingredient per 10 ares, evaluated 14th day after treatment
# Outline: as §5
row,Structure (SMILES),Herbicidal effects Am
1,COc1cc(Cl)cc(F)c1-c1ccc(C(F)(F)F)n(C)c1=O [1′-1],5

# System: Diaitaria ciliaris (Di)
# Assay: as above
# Format: in vivo
# Design: scale not given here
# Details: 100 g active ingredient per 10 ares, evaluated 14th day after treatment
# Outline: as §5
row,Structure (SMILES),Herbicidal effects Di
1,COc1cc(Cl)cc(F)c1-c1ccc(C(F)(F)F)n(C)c1=O [1′-1],5

# System: rice flatsedge (Ci)
# Assay: as above
# Format: in vivo
# Design: scale not given here
# Details: 100 g active ingredient per 10 ares, evaluated 14th day after treatment
# Outline: as §5
row,Structure (SMILES),Herbicidal effects Ci
1,COc1cc(Cl)cc(F)c1-c1ccc(C(F)(F)F)n(C)c1=O [1′-1],5

# System: pale smartweed (Po)
# Assay: as above
# Format: in vivo
# Design: scale not given here
# Details: 100 g active ingredient per 10 ares, evaluated 14th day after treatment
# Outline: as §5
row,Structure (SMILES),Herbicidal effects Po
1,COc1cc(Cl)cc(F)c1-c1ccc(C(F)(F)F)n(C)c1=O [1′-1],5

# System: barnyardgrass (Ec)
# Assay: as above
# Format: in vivo
# Design: scale not given here
# Details: 100 g active ingredient per 10 ares, evaluated 14th day after treatment
# Outline: as §5
row,Structure (SMILES),Herbicidal effects Ec
1,COc1cc(Cl)cc(F)c1-c1ccc(C(F)(F)F)n(C)c1=O [1′-1],5

# System: green foxtail (Se)
# Assay: Test Example 5: crop plant selectivity by upland field soil treatment (wheat), herbicidal effects
# Format: in vivo
# Design: scale not given here
# Details: dose 6.3 g ai/10a, 21st day after application
# Procedure: as §1, §3
row,Structure (SMILES),Herbicidal effects Se
1,COc1cc(Cl)cc(F)c1-c1ccc(C(F)(F)F)n(C)c1=O [1′-1],5

# System: common lambsquarters (Ch)
# Assay: as above
# Format: in vivo
# Design: scale not given here
# Details: dose 6.3 g ai/10a, 21st day after application
# Procedure: as §1, §3
row,Structure (SMILES),Herbicidal effects Ch
1,COc1cc(Cl)cc(F)c1-c1ccc(C(F)(F)F)n(C)c1=O [1′-1],5

# System: China jute (Ab)
# Assay: as above
# Format: in vivo
# Design: scale not given here
# Details: dose 6.3 g ai/10a, 21st day after application
# Procedure: as §1, §3
row,Structure (SMILES),Herbicidal effects Ab
1,COc1cc(Cl)cc(F)c1-c1ccc(C(F)(F)F)n(C)c1=O [1′-1],5

# System: slender amaranth (Am)
# Assay: as above
# Format: in vivo
# Design: scale not given here
# Details: dose 6.3 g ai/10a, 21st day after application
# Procedure: as §1, §3
row,Structure (SMILES),Herbicidal effects Am
1,COc1cc(Cl)cc(F)c1-c1ccc(C(F)(F)F)n(C)c1=O [1′-1],5

# System: pale smartweed (Po)
# Assay: as above
# Format: in vivo
# Design: scale not given here
# Details: dose 6.3 g ai/10a, 21st day after application
# Procedure: as §1, §3
row,Structure (SMILES),Herbicidal effects Po
1,COc1cc(Cl)cc(F)c1-c1ccc(C(F)(F)F)n(C)c1=O [1′-1],5

# System: cotton (Go)
# Assay: Test Example 4: crop plant selectivity by upland field soil treatment (cotton), phytotoxicity
# Format: in vivo
# Design: scale not given here
# Details: dose 6.3 g ai/10 a, evaluated 21st day after application
# Procedure: as §1, §4
row,Structure (SMILES),Phytotoxicity Go
1,COc1cc(Cl)cc(F)c1-c1ccc(C(F)(F)F)n(C)c1=O [1′-1],0
